# Test results as given in patent US6194173A, “Binding proteins for phosphoinositides, GRP1 or general receptor 1 for phophoinositide” (priority 1999, dated 2001).
# Read-outs that look alike come from different tables or passages of the source.
# Tests used:
# [1] = test system: receptor-regulated cell adhesion; details: cited from earlier work
# [2] = molecular target: T1, PH domain of GRP (Mus musculus, UniProt O08967); assay: Competition for [3H]dioctanoyl PtdIns(3,4,5)P3 binding to the PH domain of GRP; parameters: GST fused to the PH region of GRP (amino acids 239-399); made in house; host or cells: bacteria
# T1 sequence (O08967 239-399): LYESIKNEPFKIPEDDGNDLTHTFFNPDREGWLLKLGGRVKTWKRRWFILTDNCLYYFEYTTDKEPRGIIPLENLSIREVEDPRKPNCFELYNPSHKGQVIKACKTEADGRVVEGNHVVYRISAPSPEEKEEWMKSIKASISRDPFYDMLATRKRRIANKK
# Description: (§1) Binding assays were performed as described in (Rameh, L. E. et al., J. Biol. Chem., In Press). Briefly, GST fused to the PH region of GRP (amino acids 239-399) was bound to glutathione immobilized on agarose beads (Sigma). Synthetic [^3 H]-labeled diotanoyl PtdIns(3,4,5)P3 was added, and after one hour the beads were separated from the supernatant by centrifugation. The amount of [^3 H]-PtdIns(3,4,5)P3 bound to the PH domain was calculated by subtracting the amount of free [^3 H] present in supernatants from GST-GRP from the amount of free [^3 H] in supernatants from control GST. The data was fitted to the equation [bound]=Bmax×[free]/(KD + [free]) by least squares curve fit. For the competition assays the beads containing the GST-fusion proteins were incubated with 2.5 μM[^3 H]-labeled dioctanoyl PtdIns(3,4,5)P3 bound was calculated based on the amount of [^3 H] bound to the beads in the absence of competitor. The total [^3 H] bound to the GST control was less then 0.5% of the total [^3 H] bound to GRP PH domain. The data was fitted to the equation % bound=100-n×L/Klapp +L) where n is the % specific binding, L is the concentration of unlabeled lipid added and Klapp is the apparent competitive dissociation constant. The rations of the apparent dissociation constants accurately reflect the ratios of the true dissociation constants under the present experimental conditions (Rameh, L. E. et al., J. Biol. Chem., In Press).
# The data depicted in FIG. 8 indicate that receptor signaling through PI3-kinases, which generates PtdIns(3,4,5)P3, may specifically regulate ARF proteins through GRP. In order to further test this, the relative binding affinities of PtdIns(3,4,5)P3 versus PtdIns (4,5)P2, which is constitutively present in cell membranes, for the PH domain of GRP were determined. A GST fusion protein of the PH domain of GRP was incubated with various concentrations of synthetic [^3 H]dioctanoyl PtdIns(3,4,5)P3 and binding was determined (FIG. 9A). These experiments show high affinity binding of this polyphosphoinositide,with a calculated Kd=0.5 μM.
# [3] = test system: PH domain of PLCγ1; details: cited from earlier work
# [4] = molecular target: T2, GSTPH(GRP) (Mus musculus, UniProt O08967); assay: Competition of [32P]PI(3,4,5)P3 binding to GST-PH by inositol phosphate head groups; parameters: species or system murine
# T2 construct: residues 239 to 399 (PH domain); made in house; host or cells: bacteria
# T2 sequence (O08967 239-399): T1 sequence (O08967 239-399)
# Source text: To generate the GST fusion proteins, PCR reactions using the primers: […] (SEQ ID NO:9) and […] (SEQ ID NO:10) for the GST-N construct, […] (SEQ ID NO:11) and […] (SEQ ID NO:12) for the GST-Sec7 construct, […] (SEQ ID NO:13) and […] (SEQ ID NO:14) for the GSTPH construct, and […] (SEQ ID NO:15) and […] (SEQ ID NO:16) for the GSTGRP constructs. The sequences of the PCR products were verified, and cloned into pGEX-5X-3 in the EcoRI and Xba 1 sites. The bacteria were lysed and the fusion proteins were bound to gluthathione agarose according to standard procedures. Elution was effected by incubation of the beads with one volume 20 mM Hepes, 100 mM NaCl, 1 mM dithiotreitol (H buffer) supplemented with 10 mM gluthatione and 1% sodium cholate, and the eluate was dialyzed extensively against H buffer. For binding assays, protein was bound to nitrocellulose using a BIO-RAD BIO-DOT™ apparatus, using 150 pmol per well for binding assays and 7.5 pmol for competition assays. The nitrocellulose was washed in assay buffer, and 3 mm circles of the filters containing the protein were cut out and incubated in […] assay buffer with the relevant lipids and competitors for 2 h under constant agitation. The filters were washed four times with 1 mL assay buffer and counted in a scintillation counter.
# The specificity of the GRP PH domain for binding [^32 P]PI(3,4,5,)P3 was also examined with respect to competition by the inositol phosphate head groups of the phosphoinositides. […] More specifically, 25,000 cpm of [^32 P]PI(3,4,5)P3 was incubated with varying concentrations of inositol 1 ,3,4,5P4 and bound radioactivity determined. The amount of radioactivity bound was calculated as percent of that bound in the absence of competitor. The values are means of quadruplicate measurements, and the error bars are standard deviations. The lack of inhibition by the latter two phosphoinositides is particularly striking since they carry the same charge as the inhibitor […] The concentration of inositol 1,3,4,5-P4 that inhibited binding of [^32 p]PI(3,4,5,)P3 half maximally was about 3-6 μM (FIG. 5A). Taken together, the data in FIGS. 4 and 5 indicate extraordinary specificity of the GRP PH domain for PI(3,4,5)P3. […] The binding to GST fusion proteins containing amino acids 462-569 of murine Sos or amino acid 13-115 of murine IRS-1 was assayed using 150 pmoles of protein bound to the filters. Competition of binding to 7.5 pmoles of GST-PH was measured in the presence of 100 μM of the competitors. The values were calculated as in (A), and are means of quadruplicate measurements and the error bars represent standard deviations.
# [5] = molecular target: T3, GRP (Mus musculus, UniProt O08967); assay: Inhibition by inositol phosphates of PtdIns(3,4,5)P3-stimulated GRP-mediated ARF1 exchange; format: biochemical; details: 100 μM inositol phosphate, 0.05% cholate and 0.05% CHAPS
# T3 construct: GST (N, cleaved yes); made in house; host or cells: GRP from pGEX-4T; ARF1 from baculovirus-infected Sf-9 cells
# T3 sequence (O08967 1-399): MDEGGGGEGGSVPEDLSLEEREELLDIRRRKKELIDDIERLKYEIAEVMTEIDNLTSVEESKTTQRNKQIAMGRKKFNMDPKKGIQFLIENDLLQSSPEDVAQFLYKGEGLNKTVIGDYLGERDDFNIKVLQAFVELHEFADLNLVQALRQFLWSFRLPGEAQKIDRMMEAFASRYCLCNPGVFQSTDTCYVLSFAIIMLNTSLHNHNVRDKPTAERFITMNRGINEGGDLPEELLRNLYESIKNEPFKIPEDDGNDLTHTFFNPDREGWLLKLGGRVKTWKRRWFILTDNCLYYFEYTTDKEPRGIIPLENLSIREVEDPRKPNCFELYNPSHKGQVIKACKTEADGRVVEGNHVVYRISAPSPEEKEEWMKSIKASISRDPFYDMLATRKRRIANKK
# [6] = molecular target: T1, PH domain of GRP; assay: Binding of [3H]dioctanoyl PtdIns(3,4,5)P3 to GST-PH of GRP; parameters: GST fused to the PH region of GRP (amino acids 239-399); made in house; host or cells: bacteria
# Description: as §1, with “The total [^3 H] bound to the GST control was less then 0.5% of the total [^3 H] bound to GRP PH domain. The data was fitted to the equation % bound=100-n×L/Klapp +L) where n is the % specific binding, L is the concentration of unlabeled lipid added and Klapp is the apparent competitive dissociation constant. The rations of the apparent dissociation constants accurately reflect the ratios of the true dissociation constants under the present experimental conditions (Rameh, L. E. et al., J. Biol. Chem., In Press).” left out
# The data depicted in FIG. 8 indicate that receptor signaling through PI3-kinases, which generates PtdIns(3,4,5)P3, may specifically regulate ARF proteins through GRP. In order to further test this, the relative binding affinities of PtdIns(3,4,5)P3 versus PtdIns (4,5)P2, which is constitutively present in cell membranes, for the PH domain of GRP were determined. […] These experiments show high affinity binding of this polyphosphoinositide,with a calculated Kd=0.5 μM.
# [7] = molecular target: T1, PH domain of GRP; assay: Binding specificity of the GRP PH domain for 32P-labeled phosphoinositides (GST-PH on nitrocellulose); parameters: species or system murine; details: GST-PH, 25,000 cpm lipid; relative to GST
# Description: The 3'-phosphatidylinositol probes labeled at the 3' position were generated using GST-p110 PI3-kinase purified from recombinant bacculovirus infected Sf 9 cells, using either purified phosphatidylinositol phosphates or crude brain lipid. Briefly, 20 mg phospholipid in chloroform was dried under N2 and resuspended in […] of buffer containing Tris-HCl pH 7.4, EDTA 1 mM and incubated in […] phopsphorylation media containing 20 mM Tris-HCl pH 7.4, 100 mM NaCl, 10 mM MgCl2, 0.5 mM EGTA. 0.2 mM adenosine, GST-p110 and 5-10 mCi [g-^32 P]ATP (5 Ci/umol). The reaction was carried out for 2 h at room temperature, quenched by addition of 0.2 ml of 1M HCl, followed by 0.5 ml of chloroform:methanol (1:1). The organic phase containing phospholipids was washed 4 times with 0.4 ml of methanol:HCl (1: 1) and stored at -70° C. until use. Just before use, the lipid was dried under a stream of nitrogen with phosphatidyl serine corresponding to a final concentration of 20 mg/ml. The identities of the PI3-P, PI3,4-P2 and PI3,4,5-P3 were confirmed by TLC and HPLC analysis.
# To generate the GST fusion proteins, PCR reactions using the primers: […] (SEQ ID NO:9) and […] (SEQ ID NO:10) for the GST-N construct, […] (SEQ ID NO:11) and […] (SEQ ID NO:12) for the GST-Sec7 construct, […] (SEQ ID NO:13) and […] (SEQ ID NO:14) for the GSTPH construct, and […] […] The filters were washed four times with 1 mL assay buffer and counted in a scintillation counter.
# In order to determine whether PI(3,4,5)P3 binding could be localized to specific sequences within the GRP structure, GST fusion proteins containing either residues 239 to 399 (PH domain), residues 52 to 260 (Sec7 domain), or residues 5 to 71, full length GRP residues 5-399 were expressed in bacteria and purified on glutathione-conjugated beads. […] 150 pmol of the proteins were spotted on nitrocellulose filters, incubated with [^32 P]PI(3,4,5)P3 and the amount of bound lipid was determined as described. […] Nitrocellulose filters with GST-PH were incubated with 25,000 cpm of each of the phospholipids and the amount of bound lipid determined as described above. […]
# [8] = molecular target: T4, proteins encoded by both brain and adipocyte cDNA clones (GRP) (Mus musculus, UniProt O08967); assay: Binding of 32P-labeled phosphoinositides to protein of isolated cDNA clones on nitrocellulose filters (library screen); details: library screening conditions
# T4 construct: lack four residues
# T4 sequence (O08967 5-399): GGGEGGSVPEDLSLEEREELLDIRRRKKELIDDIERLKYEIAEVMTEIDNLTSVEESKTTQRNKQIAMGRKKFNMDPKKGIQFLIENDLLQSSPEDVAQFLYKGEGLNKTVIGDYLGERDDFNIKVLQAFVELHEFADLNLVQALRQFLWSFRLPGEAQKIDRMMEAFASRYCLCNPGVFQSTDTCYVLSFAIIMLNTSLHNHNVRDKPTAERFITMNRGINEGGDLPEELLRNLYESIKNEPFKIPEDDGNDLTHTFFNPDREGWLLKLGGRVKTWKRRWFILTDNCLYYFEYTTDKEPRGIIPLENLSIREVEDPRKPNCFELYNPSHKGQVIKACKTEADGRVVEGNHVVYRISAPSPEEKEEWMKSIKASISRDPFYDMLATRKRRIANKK
# [9] = molecular target: T3, GRP; assay: Effect of phosphoinositides on GRP-catalyzed ARF1 guanine nucleotide exchange; format: biochemical; details: 25 μM lipid, 0.15 μM GRP
compound,measurement,setting,value
COC[C@H]1OC(=O)c2coc3c2[C@@]1(C)C1=C(C3=O)[C@@H]2CCC(=O)[C@@]2(C)C[C@H]1OC(C)=O [wortmannin],receptor-regulated cell adhesion,[1],inhibits receptor-regulated cell adhesion
"CCCCCCCC(=O)OC[C@H](COP(=O)(O)O[C@@H]1[C@H](O)[C@H](O)[C@@H](OP(=O)(O)O)[C@H](OP(=O)(O)O)[C@H]1O)OC(=O)CCCCCCC [dioctanoyl PtdIns(4,5)P2]","apparent affinity lower than that for dioctanoyl PtdIns(3,4,5)P3",[2]; dioctanoyl,about two orders of magnitude lower
"CCCCCCCC(=O)OC[C@H](COP(=O)(O)O[C@H]1[C@H](O)[C@@H](OP(=O)(O)O)[C@H](OP(=O)(O)O)[C@@H](OP(=O)(O)O)[C@H]1O)OC(=O)CCCCCCC [dioctanoyl PtdIns(3,4,5)P3]","affinity, fold higher compared to PtdIns(4,5)P2",[2]; identical fatty acyl side chains (dioctanoyl),50-100 fold
"O=P(O)(O)O[C@@H]1[C@H](O)[C@H](O)[C@@H](OP(=O)(O)O)[C@H](OP(=O)(O)O)[C@H]1O [Ins(1,4,5)P3, D-myo-inositol 1,4,5 trisphosphate]",interaction with isolated PH domain of PLCγ1,[3],high affinity
same,"inhibition of [^32 P]PI(3,4,5)P3 binding to GST-PH(GRP)",[4]; 100 μM competitor,little or no effect
same,binding of inositol phosphate to GRP polypeptides,[4]; statement in the description,not
same,"inhibition of PtdIns(3,4,5)P3-stimulated GRP-mediated ARF1 guanine nucleotide exchange",[5],failed to inhibit
"CCCCCCCC(=O)OCC(COP(=O)(O)O[C@H]1[C@H](O)[C@@H](OP(=O)(O)O)[C@H](OP(=O)(O)O)[C@@H](OP(=O)(O)O)[C@H]1O)OC(=O)CCCCCCC (stereo partly drawn) [[^3 H]dioctanoyl PtdIns(3,4,5)P3]",Kd,[6],510 nM
same,Kd,"[6]; synthetic [^3 H]dioctanoyl PtdIns(3,4,5)P3",500 nM
PI(3)P,binding of labeled phosphoinositide to the GRP PH domain,[7],failed to bind
same,binding of labeled phosphoinositide to the cDNA clone protein,[8],not
"PtdIns(3,4)P2",binding of labeled phosphoinositide to the GRP PH domain,[7],failed to bind
same,stimulation of ARF1 exchange activity in the presence of GRP,[9]; 0.05% cholate and 0.05% CHAPS (low negative charge),little or no effect
same,stimulation of ARF1 exchange activity in the presence of GRP,[9]; 0.1% cholate (high negative charge),stimulated
same,binding of labeled phosphoinositide to the cDNA clone protein,[8],not
